The text below walks through data of patent US20040127428A1, “Use of D-ribose, including as a topical vehicle, to promote faster healing, including from surgical procedures” (priority 2002, published 2004).

Assay [1] relates to actinic keratoses. Kind of assay: daily oral intake of D-ribose by the inventor, actinic keratoses. Format: in vivo, human. Particulars: 10 grams of D-ribose by mouth daily, after several months; inventor on themself. An excerpt:
Another use for D-ribose is with certain skin lesions that are the result of solar-caused degeneration of the skin by exposure to the sun. This condition is commonly referred to as actinic keratosis. […] Since 5% of these lesions degenerate into squamous cell carcinomas, the use of ribose alone would be useful. On the other hand, it also may be used as part of a topical formulation. Topical 5-fluorouracil formulations (5-fluorouracil being a pyrimidine analogue with anti-neoplastic action because certain neoplasms incorporate uracil into their ribonucleic acid more readily than in normal cells) have been used to eradicate actinic keratosis in place of “spot” cryosurgery and curettage, with as much as 5% fluorouracil used. Recently there came on the market a new microsphere-based formulation using a microsphere vehicle called Microsponge® in a topical cream containing only 0.5% fluorouracil. It is applied once daily with good results and less than 1/40th the systemic fluorouracil absorption compared to that of 5% fluorouracil. The course of treatment ranged over a 4-week period. While using D-ribose systemically by itself works slowly on presumed, non-malignant actinic keratoses and senile keratoses when malignancy is questioned (as it always must be even with a histological or clinical diagnosis to the contrary), using D-ribose systemically is not enough for every case.

For assay [2], the system named is wound or burn. Description: healing of wounds and burns with ribose, alone or with antibiotics. The class given is in vivo. Particulars: ribose by itself, taken internally and/or placed on the skin. The text has this: TENS devices were part of patent application No. 09/545,121 as one of the non-living source energy devices and how they relate to D-ribose. Shortly before the turn of the 21st century, an important ATP precursor, D-ribose, became commercially available at prices low enough to enable it to be mass marketed. Before this Carniglia, et al, in U.S. Pat. Nos. 4,923,851 and 5,391,550 taught that ribose along with other nutrients helped heal induced skin lesions in mice but only as one of several listed precursors. […] The reason for this is that ribose is not available in quantity in food like other nutrients are. This component of ATP must be synthesized from glucose in the mitochondria in the glucose hexophosphate shunt (also called the pentose phosphate pathway) where a carbon atom is removed tediously by enzymatic action from glucose and phosphorylated over from 72 to 96 hours to provide the phosphorylated ribose radical. […]

Take `O=C[C@H](O)[C@H](O)[C@H](O)CO` [D-ribose]: the “large actinic keratoses on forehead and wrists” value in assay [1] is listed as “simply disappeared”. The healing result in assay [2] is “helps healing significantly”.
